# Source: PubChem BioAssay AID1033 (Sanford-Burnham Center for Chemical Genomics, 2008)
# The source made the active and inactive calls. The rule behind the calls is not given here.
# Biological target: Chaperone protein DnaK (Escherichia coli (strain K12)) (UniProt P0A6Y8)
# Assay: binders of DnaK substrate-binding domain, biophysical, NMR, chaperone (AID 1033)
# Conditions: Purified DnaK SBD, NMR ligand binding
# Chain of Chaperone protein DnaK (Escherichia coli (strain K12)) (P0A6Y8 whole entry, looked up, the tested form may be a part): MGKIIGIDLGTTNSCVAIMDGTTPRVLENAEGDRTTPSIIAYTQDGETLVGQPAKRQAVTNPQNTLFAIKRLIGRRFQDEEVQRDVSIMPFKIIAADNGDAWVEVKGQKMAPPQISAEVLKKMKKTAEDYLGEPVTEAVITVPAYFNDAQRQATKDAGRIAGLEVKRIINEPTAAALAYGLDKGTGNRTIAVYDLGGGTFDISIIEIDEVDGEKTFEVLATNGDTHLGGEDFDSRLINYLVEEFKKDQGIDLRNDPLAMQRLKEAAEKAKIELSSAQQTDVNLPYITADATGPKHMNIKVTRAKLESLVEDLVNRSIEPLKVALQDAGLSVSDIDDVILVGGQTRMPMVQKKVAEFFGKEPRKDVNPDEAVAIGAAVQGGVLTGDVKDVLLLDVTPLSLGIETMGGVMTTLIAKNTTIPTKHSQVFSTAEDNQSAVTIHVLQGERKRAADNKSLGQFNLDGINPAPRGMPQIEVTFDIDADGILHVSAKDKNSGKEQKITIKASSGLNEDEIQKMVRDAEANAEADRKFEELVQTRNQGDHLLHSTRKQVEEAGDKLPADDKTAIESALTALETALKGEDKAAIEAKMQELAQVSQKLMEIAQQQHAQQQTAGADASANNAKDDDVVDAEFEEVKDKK
row,Compound,Kd
1,Cc1ncc(C(=O)O)c(-c2ccccc2)n1,> 4 mM (inactive)
2,c1ccc(-c2nnc3sc(-c4ccncc4)nn23)cc1,> 4 mM (inactive)
3,CN1CCN(C(=O)/C=C\C(=O)O)CC1,> 4 mM (inactive)
4,NC1=NC(=O)/C(=C\c2ccco2)S1,> 4 mM (inactive)
5,N#Cc1cc2c(nc1SCc1ccncc1)CCC2,> 4 mM (inactive)
6,COc1ccccc1NC(=O)c1snnc1C,> 4 mM (inactive)
7,Cc1cc(C(=O)N2CCOCC2)c(C)o1,> 4 mM (inactive)
8,O=C(NC12CC3CC(CC(C3)C1)C2)c1cnccn1,> 4 mM (inactive)
9,CC(=O)Nc1cc(O)cc(O)c1,> 4 mM (inactive)
10,C[C@]12C=CC(=O)C=C1CCC1C2CC[C@]2(C)C(=O)CCC12 (some centres not stated),> 4 mM (inactive)
11,NS(=O)(=O)c1ccc(NC(=O)C2CC2)cc1,> 4 mM (inactive)
12,Nc1ccc(NC(=O)c2ccco2)c(Cl)c1,> 4 mM (inactive)
13,COc1ccccc1NC(C)=O,> 4 mM (inactive)
14,CC(=O)CC1CCCCN1 (configuration not stated),> 4 mM (inactive)
15,Cc1nc2ccc(NC(=O)N3CCOCC3)cc2s1,> 4 mM (inactive)
16,Nc1ccc2c(C(F)(F)F)cc(=O)oc2c1,> 4 mM (inactive)
17,CC(=O)OCC(=O)[C@@]1(O)CCC2C3CC[C@@H]4C[C@H](O)CC[C@]4(C)C3C(=O)C[C@@]21C (some centres not stated),> 4 mM (inactive)
18,O=C1C2C3C=CC(C3)C2C(=O)N1c1ccccn1 (configuration not stated),> 4 mM (inactive)
19,NCc1nc2ccccc2s1,> 4 mM (inactive)
20,Fc1ccc(-c2n[nH]c(=S)n2CC2CCCO2)cc1 (configuration not stated),> 4 mM (inactive)
21,COCC(=O)OCn1nnc2ccccc2c1=O,> 4 mM (inactive)
22,CC1=C(C(N)=O)C(c2cccs2)C(C(N)=O)=C(C)N1,> 4 mM (inactive)
23,O=C(O)c1ccc(-c2cccs2)cc1,> 4 mM (inactive)

row,Compound,Kd
1,S=c1[nH]nc(-c2cccnc2)n1Cc1ccccc1,> 4 mM (inactive)
2,Cc1cc2c(N)cccc2nn1,> 4 mM (inactive)
3,O=S(=O)(Cc1ccccc1)N1CCCCCC1,> 4 mM (inactive)
4,Nc1nc(-c2ccc(Cl)cc2)nn1C(=O)c1cccnc1,> 4 mM (inactive)
5,CC1(C)O[C@H]2CC(=O)OC[C@]23[C@H]2CC[C@@]4(C)[C@H](c5ccoc5)OC(=O)[C@H]5O[C@]54[C@]2(C)C(=O)C[C@@H]13,> 4 mM (inactive)
6,CSc1ncnc2nc[nH]c12,> 4 mM (inactive)
7,CC1=NCCc2c1[nH]c1cc(O)ccc21,> 4 mM (inactive)
8,C=C1C(=O)OC2CC1C(OC(C)=O)C/C(C)=C/CC/C(C)=C/CC[C@]2(C)O (some centres not stated),> 4 mM (inactive)
9,FC(F)(F)c1cc(-c2ccco2)nc(N2CCOCC2)n1,> 4 mM (inactive)
10,NC(=O)CCn1ncc2ccccc21,> 4 mM (inactive)
11,COC(=O)c1ccc(/C=C2/NC(=S)NC2=O)cc1,> 4 mM (inactive)
12,Cn1c(=O)c2[nH]c(Nc3ccccc3)nc2n(C)c1=O,> 4 mM (inactive)
13,OCc1cccc2c1OCO2,> 4 mM (inactive)
14,Cc1nnc(NC(=O)C(C)Sc2nncn2C)s1 (configuration not stated),> 4 mM (inactive)
15,Cc1cc(N)no1,> 4 mM (inactive)
16,COc1c(-c2coc3cc4c(cc3c2=O)CC(OC(C)=O)C(C)(C)O4)ccc2c1C=CC(C)(C)O2 (configuration not stated),> 4 mM (inactive)
17,CC12CCCC(O)(C1)C1CC(C)(C)C1CC2 (configuration not stated),> 4 mM (inactive)
18,C[C@@H]1OC(O[C@H]2[C@H](OC(=O)[C@]34CCC(C)(C)CC3C3=CCC5[C@@]6(C)CC[C@H](OC7O[C@@H](C)[C@H](O[C@@H]8OC[C@@H](O)[C@H](O)[C@H]8O)[C@@H](O)[C@H]7O)C(C)(C)C6CC[C@@]5(C)[C@]3(C)CC4O)OC[C@H](O)[C@H]2O)[C@H](O)[C@H](O)[C@H]1O[C@@H]1O[C@H](CO)[C@@H](O)[C@H](O)[C@H]1O (some centres not stated),> 4 mM (inactive)
19,O=C(c1nc2ccccc2s1)N1CCSCC1,> 4 mM (inactive)
20,O=C(O)c1[nH]nc2c1COc1ccccc1-2,> 4 mM (inactive)
21,Cc1oc(-c2ccccc2)cc1C(=O)O,> 4 mM (inactive)
22,Cc1ccc(CNC(=O)c2ccc([N+](=O)[O-])o2)cc1,< 0.2 mM
23,O=C(NCc1cccnc1)c1ccccn1,> 4 mM (inactive)

row,Compound,Kd
1,O=C(Nc1cccc(C(F)(F)F)c1)c1cccnc1,> 4 mM (inactive)
2,C1CCN2C[C@@H]3C[C@H](CN4CCCC[C@@H]34)[C@H]2C1,> 4 mM (inactive)
3,O=S(=O)(NCc1ccco1)c1cccc2cccnc12,> 4 mM (inactive)
4,Cc1nnc(NCCO)[nH]c1=O,> 4 mM (inactive)
5,Nc1cccc(OC(F)(F)F)c1,> 4 mM (inactive)
6,CC1(C)Cc2c(C#N)c(N)n(-c3ccccc3)c(=O)c2CO1,> 4 mM (inactive)
7,CC(C)Oc1ccc(NC(N)=O)cc1,> 4 mM (inactive)
8,c1ccc(C[N+]23CCN(CC2)c2ccccc23)cc1,> 4 mM (inactive)
9,O=C1CSC(=Nc2ccc(C(=O)O)cc2)N1,> 4 mM (inactive)
10,Cc1cc(=O)n2ncn(Cc3ccccc3)c2n1,> 4 mM (inactive)
11,O=C(c1ccccc1)N1CCNCC1,> 4 mM (inactive)
12,Cc1nn(CC(=O)Nc2ccccc2)c(=O)c2ccccc12,> 4 mM (inactive)
13,Cc1nnc(SCC(=O)NCc2ccccc2)[nH]c1=O,> 4 mM (inactive)
14,Cc1nnc(SCC(=O)N2CCCCC2)s1,> 4 mM (inactive)
15,CC1(C)Cc2cccc(CO)c2O1,> 4 mM (inactive)
16,Cn1c(=O)n(C)c2cc(C(N)=O)ccc21,> 4 mM (inactive)
17,O=C(Cc1cccs1)Nc1nncs1,> 4 mM (inactive)
18,Cn1c(=O)c2c(ncn2CCNC2=NCCC2)n(C)c1=O,> 4 mM (inactive)
19,Nc1ccc2c(c1)CCC2=O,> 4 mM (inactive)
20,CCNC(CC(=O)Nc1ccc(F)cc1)C(=O)O (configuration not stated),> 4 mM (inactive)
21,Cc1nc2ccc(F)cc2cc1C(=O)NCc1ccco1,> 4 mM (inactive)
22,O=C(NCc1cccc2ccsc12)c1cccs1,< 0.2 mM
23,N#Cc1cnn(-c2ccc(Cl)cc2)c1N,> 4 mM (inactive)

row,Compound,Kd
1,CC(=O)O[C@@H]1CC2C(C)(C)C(=O)[C@@H]3O[C@@H]3[C@]2(C)C2CC[C@]3(C)C(=CC(=O)O[C@H]3c3ccoc3)[C@@]21C (some centres not stated),> 4 mM (inactive)
2,CC1CN(C2=NCCN2)CC(C)O1 (configuration not stated),> 4 mM (inactive)
3,O=c1c[n+]([O-])c2ccccc2n1OCc1ccccc1,> 4 mM (inactive)
4,O=C(c1ccccc1)N1CCOCC1,> 4 mM (inactive)
5,CC1=CC(C)C(C(=O)O)C(C(=O)N2CCN(C)CC2)C1 (configuration not stated),> 4 mM (inactive)
6,COC(=O)Cc1cc(=O)n(-c2nc3ccccc3s2)[nH]1,> 4 mM (inactive)
7,O=c1oc2c(O)c(O)cc3c(=O)oc4c(O)c(O)cc1c4c23,> 4 mM (inactive)
8,Cn1nnc2cc(C(=O)O)ccc21,> 4 mM (inactive)
9,CC(=O)Nc1ccc(NC(=O)c2ccncc2)cc1,> 4 mM (inactive)
10,O=C(CN1C(=O)CCC1=O)c1ccccc1,> 4 mM (inactive)
11,c1ccc(-c2noc(-c3ccco3)n2)nc1,> 4 mM (inactive)
12,O=C(Nc1ccc(N2CCOCC2)cc1)c1cnsn1,> 4 mM (inactive)
13,Cc1nn(-c2ccccc2)nc1C(=O)O,> 4 mM (inactive)
14,CCOC(=O)Cn1cnc2sc3c(c2c1=O)CCC3,> 4 mM (inactive)
15,CC(=O)O[C@H]1C[C@@H](OC(C)=O)C(C)(C)C2C[C@@H](OC(C)=O)[C@]3(C)C(CC[C@@]4(C)[C@H](c5ccoc5)C(=O)[C@H]5O[C@]543)[C@]21C (some centres not stated),> 4 mM (inactive)
16,CN(C)C(=O)Nc1ccc(F)cc1F,> 4 mM (inactive)
17,O=C(CN1CCOCC1)Nc1cccc(Br)c1,> 4 mM (inactive)
18,Cc1cc(C(=O)NC2=NCCS2)cs1,> 4 mM (inactive)
19,O=C(Nn1c(=S)[nH]c2ccccc2c1=O)c1ccncc1,> 4 mM (inactive)
20,CS(=O)(=O)N/N=C/c1cccs1,> 4 mM (inactive)
21,Cc1cc(C)n(-c2cccc3cccnc23)n1,> 4 mM (inactive)
22,CN1CCC(NC(=O)c2cnccn2)CC1,> 4 mM (inactive)
23,Cc1nn2c(-c3ccco3)nnc2c2ccccc12,> 4 mM (inactive)

row,Compound,Kd
1,C[C@H]1C(=O)CCC2[C@]3(C)CC[C@@]4(C)C5CC(C)(C)CC[C@]5(C)CC[C@]4(C)C3CC[C@@]21C (some centres not stated),> 4 mM (inactive)
2,Cn1c(NCc2ccccc2O)nc2ccccc21,> 4 mM (inactive)
3,COC(=O)c1c(C)c2c(c(C)c1O)OC(=O)c1c(C)c(Cl)c(O)c(Cl)c1O2,> 4 mM (inactive)
4,Cc1cc(C)nc(/N=C(/N)Nc2cccc(F)c2)n1,> 4 mM (inactive)
5,O=C(O)c1ccc(Oc2ccccc2)nc1,> 4 mM (inactive)
6,Cc1nc2nc(Cc3ccccc3)[nH]n2c(=O)c1Cl,> 4 mM (inactive)
7,CSc1nc2[nH]ncc2c(=O)[nH]1,> 4 mM (inactive)
8,COn1c(=O)c(C)[n+]([O-])c2ccccc21,> 4 mM (inactive)
9,CC1(C)C(=O)[C@@H]2O[C@@H]2[C@@]2(C)C1C[C@@H](O)[C@]1(C)C2CC[C@@]2(C)[C@H](c3ccoc3)OC(=O)C3OC321 (some centres not stated),> 4 mM (inactive)
10,O=C(O)CCC(=O)c1cccc2ccccc12,> 4 mM (inactive)
11,CN1CCN(c2ccc(CN)cc2)CC1,> 4 mM (inactive)
12,Cn1c(=O)[nH]c2nc[nH]c2c1=O,> 4 mM (inactive)
13,CC(=O)CC1(O)C(=O)Nc2ccccc21 (configuration not stated),> 4 mM (inactive)
14,Cc1csc(SCC(=O)N2CCCC2)n1,> 4 mM (inactive)
15,CCc1cccc(C)c1NC(=O)c1cc(C)oc1C,> 4 mM (inactive)
16,COc1c2ccoc2nc2c(OC)c(OCC(O)C(C)(C)O)ccc12 (configuration not stated),> 4 mM (inactive)
17,Nc1ccc2c(c1)OCO2,> 4 mM (inactive)
18,CC12CCC3C(CC3(C)C)C(C)(CCC1=O)O2 (configuration not stated),> 4 mM (inactive)
19,CC(=O)O[C@H]1C[C@@]2(C)[C@@H](C[C@@H](O)C3[C@]2(C)CC[C@H]2[C@H](C)[C@H](O)CC[C@]32C)/C1=C(/CCC=C(C)C)C(=O)O (some centres not stated),> 4 mM (inactive)
20,NC(=O)CN1C(=O)c2cccc3cccc1c23,> 4 mM (inactive)
